{"source": "patent US6497904B2", "about": "“Treatment of oncologic tumors with an injectable formulation of a golgi apparatus disturbing agent” (priority 1998, dated 2002)", "key": {"Erlich tumors": {"system": "Erlich tumors", "assay": "In vivo efficacy (delay in tumor growth, T/C) in Balb/C mice carrying Erlich tumors", "experimental": "For each of the following examples, the pharmaceutical formulations were prepared just prior to use. Various amounts of brefeldin A (mg of drug/kg animal's body weight) were weighed out and varying amounts of solvent was used to mix the drug. The mixtures were either vortexed (mechanical mixing) or sonicated until drug was either completely soluble or only a very small amount appeared to settle in the bottom the test tube. Chitin was then added and the mixture was sonicated.\nSix days following inoculation, the mice normally grew a tumor on each flank, ranging in size from 100 to 120 mm^3. The mice (average weight=25 g) were randomized and separated into groups. Each tumor was then measured and the tumor volume calculated and recorded. In experimental groups, one tumor on each mouse was treated with the appropriate agent (drug versus drug in formulation) with an injection volume of 50 ul using a 22G½ needle. The control group was left untreated.\nAntitumor activity was determined by inhibition of tumor growth and survival rate. Each tumor was measured two to three times per week. In nude mice, tumors were measured for 10 days or until mice survived. In Balb/C tumors were measured for up to 20 days following treatment. The volume of the tumor was calculated and recorded. Tumor volume data is analyzed by using simple regression model. […]\nBalb/C mice are divided into groups and given treatments according to Table 4. Mice are observed daily to evaluate lethal toxicity and tumors are measured on alternate days for 20 days. […]"}, "Balb/C mice": {"system": "Balb/C mice", "assay": "Survival of Balb/C mice following treatment (deaths due to toxicity)", "format": "in vivo", "settings": "Example 3", "description": "Balb/C mice are divided into groups and given treatments according to Table 3. Mice are observed daily for 25 days for deaths due to toxicity.\nBalb/C mice are divided into groups and given treatments according to Table 7."}}, "data": [{"compound": "C[C@H]1CCC/C=C/[C@@H]2C[C@H](O)C[C@H]2[C@H](O)/C=C/C(=O)O1", "note": "[brefeldin A]", "values": [{"measurement": "T/C ratio of delay in tumor growth", "setting": "Erlich tumors; Example 2, groups 5, 6, and 7, given with the solvent (DMA 5-20 μl), no chitin", "result": "1.25-1.75"}, {"measurement": "T/C ratio of delay in tumor growth", "setting": "Erlich tumors; Example 2, groups 8, 9, and 10, delivered with DMA (5-20 μl) and chitin", "result": "2.00-2.75"}, {"measurement": "T/C ratio of delay in tumor growth", "setting": "Erlich tumors; Example 4, groups 4, 5, and 6, BFA 2 mg delivered with DMA and chitin", "result": "2.50-2.85"}, {"measurement": "T/C ratio of delay in tumor growth", "setting": "Erlich tumors; Example 4, groups 7, 8, and 9, decreased dose of brefeldin A (0.5 mg) with DMA and chitin", "result": "2.30-2.55"}, {"measurement": "toxicity to mice", "setting": "Balb/C mice; high doses (80 mg/kg and 40 mg/kg) with DMA, groups 4 and 8", "result": "most toxic"}, {"measurement": "toxicity to mice", "setting": "Balb/C mice; when chitin is added to the formulation (with DMA)", "result": "less toxicity"}]}]}
